Laboratory results taken from patent US9006455B2 (Bristol-Myers Squibb Company, priority 2009, dated 2015).

The molecules below were run on HCV 1b genotype (assay: HCV Replicon assay (HCV 1b genotype)). Settings: Hepatitis C virus; HCV 1b genotype replicon; read-out: EC50.
Format: cell-based
Protocol: An HCV Replicon assay was utilized in the present disclosure, and was prepared, conducted and validated as described in commonly owned PCT/US2006/022197 and in O'Boyle et al., Antimicrob. Agents Chemother., 49(4):1346-1353 (April 2005). Assay methods incorporating luciferase reporters have also been used as described (Apath.com).
HCV-neo replicon cells and replicon cells containing resistance substitutions in the NS5A region were used to test the currently described family of compounds. The compounds were determined to have differing degrees of reduced inhibitory activity on cells containing mutations vs. the corresponding inhibitory potency against wild-type cells. Thus, the compounds of the present disclosure can be effective in inhibiting the function of the HCV NS5A protein and are understood to be as effective in combinations as previously described in application PCT/US2006/022197 and commonly owned WO 04/014852. It should be understood that the compounds of the present disclosure can inhibit multiple genotypes of HCV. […] In one embodiment, compounds of the present disclosure are inhibitory versus 1a, 1b, 2a, 2b, 3a, 4a, and 5a genotypes.

Point of comparison: `COC(=O)N[C@H](C(=O)N1[C@@H]2C[C@@H]2C[C@H]1c1nc2ccc(-c3ccc4nc(-c5ccc6nc([C@@H]7C[C@H]8C[C@H]8N7C(=O)[C@@H](NC(=O)OC)C7CCOCC7)[nH]c6c5)cnc4c3)cc2[nH]1)C1CCOCC1` [Example 38, Dimethyl(2,6-quinoxalinediylbis(1H-benzimidazole-5,2-diyl(1R,3S,5R)-2-azabicyclo[3.1.0]hexane-3,2-diyl((1S)-2-oxo-1-(tetrahydro-2H-pyran-4-yl)-2,1-ethanediyl)))biscarbamate], EC50 0.0421 nM. Against it:
- COC(=O)N[C@H](C(=O)N1[C@@H](C)CC[C@H]1c1ncc(-c2ccc(-c3ccc4cc(-c5cnc([C@@H]6CC[C@H](C)N6C(=O)[C@@H](NC(=O)OC)C6CCC(F)(F)CC6)[nH]5)ccc4c3)cc2)[nH]1)C1CCC(F)(F)CC1 [Example 71, Methyl((1S)-1-(4,4-difluorocyclohexyl)-2-((2S,5S)-2-(4-(4-(6-(2-((2S,5S)-1-((2S)-2-(4,4-difluorocyclohexyl)-2-((methoxycarbonyl)amino)acetyl)-5-methyl-2-pyrrolidinyl)-1H-imidazol-4-yl)-2-naphthyl)phenyl)-1H-imidazol-2-yl)-5-methyl-1-pyrrolidinyl)-2-oxoethyl)carbamate] — 20-fold lower, 0.00211 nM
- CC(=O)N1[C@@H](C)CC[C@H]1c1ncc(-c2ccc(-c3ccc4cc(-c5cnc([C@@H]6CC[C@H](C)N6C(C)=O)[nH]5)ccc4c3)cc2)[nH]1 [Example 109, 2-((2S,5S)-1-Acetyl-5-methyl-2-pyrrolidinyl)-4-(4-(6-(2-((2S,5S)-1-acetyl-5-methyl-2-pyrrolidinyl)-1H-imidazol-4-yl)-2-naphthyl)phenyl)-1H-imidazole] — 4300-fold higher, 180 nM

Same assay, conditions: Hepatitis C virus; HCV 1b genotype replicon; read-out: Range (EC50 values against HCV 1b)

First: COC(=O)N[C@H](C(=O)N[C@@H](C)c1ncc(-c2ccc(-c3ccc4cc(-c5cnc([C@H](C)NC(=O)[C@@H](NC(=O)OC)C(C)C)[nH]5)ccc4c3)cc2)[nH]1)C(C)C [Example 124, Methyl((1S)-1-(((1S)-1-(4-(4-(6-(2-((1S)-1-(((2S)-2-((methoxycarbonyl)amino)-3-methylbutanoyl)amino)ethyl)-1H-imidazol-4-yl)-2-naphthyl)phenyl)-1H-imidazol-2-yl)ethyl)carbamoyl)-2-methylpropyl)carbamate]
Second: COC(=O)N[C@H](C(=O)N1CCC[C@H]1c1ncc(-c2ccc3ccc(-c4ccc5nc([C@@H]6CCCN6C(=O)[C@@H](NC(=O)OC)C(C)C)[nH]c5c4)cc3c2)[nH]1)C(C)C [Example 17, Methyl((1S)-1-(((2S)-2-(4-(7-(2-((2S)-1-((2S)-2-((methoxycarbonyl)amino)-3-methylbutanoyl)-2-pyrrolidinyl)-1H-benzimidazol-5-yl)-2-naphthyl)-1H-imidazol-2-yl)-1-pyrrolidinyl)carbonyl)-2-methylpropyl)carbamate]
The EC50 of the first is lower: 0.0101 to 1 nM for the first, 1.01 to 1000 nM for the second. The first is the more potent here.

`COC(=O)N[C@H](C(=O)N1CCC[C@H]1c1nc2ncc(-c3ccc4cc(-c5cnc6nc([C@@H]7CCCN7C(=O)[C@@H](NC(=O)OC)C(C)C)[nH]c6c5)ccc4c3)cc2[nH]1)C(C)C` [Example 22, Methyl((1S)-1-(((2S)-2-(6-(6-(2-((2S)-1-((2S)-2-((methoxycarbonyl)amino)-3-methylbutanoyl)-2-pyrrolidinyl)-1H-imidazo[4,5-b]pyridin-6-yl)-2-naphthyl)-1H-imidazo[4,5-b]pyridin-2-yl)-1-pyrrolidinyl)carbonyl)-2-methylpropyl)carbamate] and `COC(=O)N[C@H](C(=O)N1CCC[C@H]1c1ncc(C#Cc2ccc3cc(C#Cc4cnc([C@@H]5CCCN5C(=O)[C@@H](NC(=O)OC)C(C)C)[nH]4)ccc3c2)[nH]1)C(C)C` [Example 31, Methyl((1S)-1-(((2S)-2-(4-((6-((2-((2S)-1-((2S)-2-((methoxycarbonyl)amino)-3-methylbutanoyl)-2-pyrrolidinyl)-1H-imidazol-4-yl)ethynyl)-2-naphthyl)ethynyl)-1H-imidazol-2-yl)-1-pyrrolidinyl)carbonyl)-2-methylpropyl)carbamate] fall in the same range of EC50: 0.0101 to 1 nM for the first, 0.0101 to 1 nM for the second.

First: CC(=O)N1[C@@H](C)CC[C@H]1c1ncc(-c2ccc(-c3ccc4cc(-c5cnc([C@@H]6CC[C@H](C)N6C(C)=O)[nH]5)ccc4c3)cc2)[nH]1 [Example 109, 2-((2S,5S)-1-Acetyl-5-methyl-2-pyrrolidinyl)-4-(4-(6-(2-((2S,5S)-1-acetyl-5-methyl-2-pyrrolidinyl)-1H-imidazol-4-yl)-2-naphthyl)phenyl)-1H-imidazole]
Second: COC(=O)N[C@H](C(=O)N1C(c2ncc(-c3ccc4cc(-c5cccc(-c6c[nH]c([C@@H]7C[C@H]8C[C@H]8N7C(=O)[C@@H](NC(=O)OC)C(C)C)n6)c5)ccc4c3)[nH]2)CC2CC21)C(C)C (stereo in doubt) [Example 51, Methyl((1S)-1-(((1S,3R,5S)-3-(4-(6-(3-(2-((1R,3S,5R)-2-((2S)-2-((methoxycarbonyl)amino)-3-methylbutanoyl)-2-azabicyclo[3.1.0]hex-3-yl)-1H-imidazol-4-yl)phenyl)-2-naphthyl)-1H-imidazol-2-yl)-2-azabicyclo[3.1.0]hex-2-yl)carbonyl)-2-methylpropyl)carbamate]
The EC50 of the first is higher: 1.01 to 1000 nM for the first, 0.0101 to 1 nM for the second.

First: COC(=O)N[C@@H](C(=O)N1CCC[C@H]1c1nc2cc(-c3ccc4ccc(-c5ccc6nc([C@@H]7CCCN7C(=O)[C@H](NC(=O)OC)c7ccccc7)[nH]c6c5)cc4c3)ccc2[nH]1)c1ccccc1 [Example 12, Dimethyl(2,7-naphthalenediylbis(1H-benzimidazole-5,2-diyl(2S)-2,1-pyrrolidinediyl((1R)-2-oxo-1-phenyl-2,1-ethanediyl)))biscarbamate]
Second: COC(=O)N[C@H](C(=O)N1CCC[C@H]1c1ncc(-c2ccc3cc(-c4ccc5c(ccc6nc([C@@H]7CCCN7C(=O)[C@@H](NC(=O)OC)C7CCOCC7)[nH]c65)c4)ccc3c2)[nH]1)C1CCOCC1 [Example 42]
The EC50 of the first is higher: 1.01 to 1000 nM for the first, 0.0101 to 1 nM for the second.

First: CC(C)(C)OC(=O)N1CCC[C@H]1c1nc(-c2ccc3cc(-c4c[nH]c([C@@H]5CCCN5C(=O)OC(C)(C)C)n4)ccc3c2)c[nH]1 [Intermediate 52, (2S,2′S)-tert-Butyl 2,2′-(4,4′-(naphthalene-2,6-diyl)bis(1H-imidazole-4,2-diyl))dipyrrolidine-1-carboxylate]
Second: COC(=O)N[C@H](C(=O)N1CCOC[C@H]1c1nc(-c2ccc(-c3ccc4cc(-c5c[nH]c([C@@H]6COCCN6C(=O)[C@@H](NC(=O)OC)C6CCOCC6)n5)ccc4c3)cc2)c[nH]1)C1CCOCC1 [Example 116, Methyl((1S)-2-((3R)-3-(4-(4-(6-(2-((3R)-4-((2S)-2-((methoxycarbonyl)amino)-2-(tetrahydro-2H-pyran-4-yl)acetyl)-3-morpholinyl)-1H-imidazol-4-yl)-2-naphthyl)phenyl)-1H-imidazol-2-yl)-4-morpholinyl)-2-oxo-1-(tetrahydro-2H-pyran-4-yl)ethyl)carbamate]
The EC50 of the first is higher: 1.01 to 1000 nM for the first, 0.0101 to 1 nM for the second.

`COC(=O)N[C@H](C(=O)N1[C@@H]2C[C@@H]2C[C@H]1c1nc2ccc(-c3ccc4nc(-c5ccc6nc([C@@H]7C[C@H]8C[C@H]8N7C(=O)[C@@H](NC(=O)OC)C7CCOCC7)[nH]c6c5)cnc4c3)cc2[nH]1)C1CCOCC1` [Example 38, Dimethyl(2,6-quinoxalinediylbis(1H-benzimidazole-5,2-diyl(1R,3S,5R)-2-azabicyclo[3.1.0]hexane-3,2-diyl((1S)-2-oxo-1-(tetrahydro-2H-pyran-4-yl)-2,1-ethanediyl)))biscarbamate] and `COC(=O)N[C@H](C(=O)N1[C@@H]2C[C@@H]2C[C@H]1c1nc(Cl)c(-c2ccc3cc(-c4ccc5nc([C@@H]6C[C@H]7C[C@H]7N6C(=O)[C@@H](NC(=O)OC)C6CCOCC6)[nH]c5c4)ccc3c2)[nH]1)C1CCOCC1` [Example 50, Methyl((1S)-2-((1R,3S,5R)-3-(4-chloro-5-(6-(2-((1R,3S,5R)-2-((2S)-2-((methoxycarbonyl)amino)-2-(tetrahydro-2H-pyran-4-yl)acetyl)-2-azabicyclo[3.1.0]hex-3-yl)-1H-benzimidazol-5-yl)-2-naphthyl)-1H-imidazol-2-yl)-2-azabicyclo[3.1.0]hex-2-yl)-2-oxo-1-(tetrahydro-2H-pyran-4-yl)ethyl)carbamate] fall in the same range of EC50: 0.0101 to 1 nM for the first, 0.0101 to 1 nM for the second.
